The source of these data is US20260102383A1, “LPAR1 Inhibitors” (AbbVie Inc., priority 2024, published 2026).

The term IC50 denotes the concentration at which inhibition is half-maximal.

The first experiment deals with T1, human LPAR1 (Homo sapiens, UniProt Q92633).
T1 construct: host or cells: TangoEDG2-bla U2OS cells
T1 sequence (Q92633 whole entry): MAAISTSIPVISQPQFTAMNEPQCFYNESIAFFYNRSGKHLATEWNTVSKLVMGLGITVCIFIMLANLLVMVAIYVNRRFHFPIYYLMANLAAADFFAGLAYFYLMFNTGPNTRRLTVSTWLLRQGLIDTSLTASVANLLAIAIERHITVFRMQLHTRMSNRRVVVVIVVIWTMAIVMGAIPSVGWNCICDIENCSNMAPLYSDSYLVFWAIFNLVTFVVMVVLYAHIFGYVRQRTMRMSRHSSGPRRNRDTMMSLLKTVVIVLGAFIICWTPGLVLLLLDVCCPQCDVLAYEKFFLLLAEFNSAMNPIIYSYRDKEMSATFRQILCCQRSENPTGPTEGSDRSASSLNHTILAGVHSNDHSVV
Put plainly: Arrestin assay (Arrestin Reporter EDG2-bla U2OS), inhibition of LPA-stimulated signal. The experiment is classed as cell-based. The conditions noted are these: TangoEDG2-bla U2OS cells expressing human LPAR1; 0.25 μM LPA; read-out: Arrestin Reporter EDG2-bla U2OS Human IC50. Summed up:
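TangoEDG2-bla U2OS cells (1×10^4/well, plated 18-20 h) were preincubated 1 h at 37 °C with compound (12-point, 3-fold, 10 μM to 0.00006 μM), then stimulated 3 h with 0.25 μM LPA final. LiveBLAzer FRET B/G 460/530 nm emission ratio gave % inhibition; IC50 from 4-parameter variable-slope fit.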
For `CC(C)c1ccnn1C1(C(=O)Nc2ccc(Cl)cc2OC(F)F)CCN([C@H]2C[C@@](C)(C(=O)O)C2)CC1` [Compound 77, (1s,38)-3-[4-[[4-chloro-2-(difluoromethoxy)phenyl]carbamoyl]-4-(5-isopropylpyrazol-1-yl)-1-piperidyl]-1-methyl-cyclobutanecarboxylic acid], the concentration for half-maximal inhibition (IC50) stood at 43.6 nM.

In the case of `CC1(C)OCc2cnn(C3(C(=O)Nc4ccc(Cl)cc4OC(F)F)CCN(CC4(C(=O)O)CCOCC4)CC3)c21` [Compound 84, 4-[[4-[[4-chloro-2-(difluoromethoxy)phenyl]carbamoyl]-4-(6,6-dimethyl-4H-furo[3,4-c]pyrazol-1-yl)-1-piperidyl]methyl]tetrahydropyran-4-carboxylic acid], the IC50 is 57.2 nM.

Staying with this experiment, now noted: TangoEDG2-bla U2OS cells expressing human LPAR1; 0.25 μM LPA; read-out: Arrestin Reporter EDG2-bla U2OS Human Merged IC50.
With `CC(C)c1ccnn1C1(C(=O)Nc2ccc(Cl)cc2OC(F)F)CCN(CC2(C(=O)O)CCN(C(=O)C3CCOCC3)CC2)CC1` [Compound 71, 4-[[4-[[4-chloro-2-(difluoromethoxy)phenyl]carbamoyl]-4-(5-isopropylpyrazol-1-yl)-1-piperidyl]methyl]-1-(tetrahydropyran-4-carbonyl)piperidine-4-carboxylic acid], the IC50 was 105 nM.

For `CC(C)c1ccnn1C1(C(=O)Nc2ccc(Cl)cc2OC(F)F)CCN(CC2(C(=O)O)CCN(C(=O)C34CC(F)(C3)C4)CC2)CC1` [Compound 72, 4-[[4-[[4-chloro-2-(difluoromethoxy)phenyl]carbamoyl]-4-(5-isopropylpyrazol-1-yl)-1-piperidyl]methyl]-1-(3-fluorobicyclo[1.1.1]pentane-1-carbonyl)piperidine-4-carboxylic acid], the concentration for half-maximal inhibition (IC50) came out at 18.8 nM.

`CC(C)c1ccnn1C1(C(=O)Nc2ccc(Cl)cc2OC(F)F)CCN(CC2(C(=O)O)CC23CCOCC3)CC1` (stereo not shown) [Compound 73, 2-[[4-[[4-chloro-2-(difluoromethoxy)phenyl]carbamoyl]-4-(5-isopropylpyrazol-1-yl)-1-piperidyl]methyl]-6-oxaspiro[2.5]octane-2-carboxylic acid]: the IC50 worked out at 37.2 nM.

As for `CC(C)c1ccnn1C1(C(=O)Nc2ccc(Cl)cc2OC(F)F)CCN(CC2(C(=O)O)CC=CC2)CC1` [Compound 74, 1-[[4-[[4-chloro-2-(difluoromethoxy)phenyl]carbamoyl]-4-(5-isopropylpyrazol-1-yl)-1-piperidyl]methyl]cyclopent-3-ene-1-carboxylic acid], the 50% inhibitory concentration (IC50) turned out to be 10.8 nM.

Regarding `CC(C)C(=O)N1CCC(CN2CCC(C(=O)Nc3ccc(Cl)cc3OC(F)F)(n3nccc3C(C)C)CC2)(C(=O)O)CC1` [Compound 75, 4-[[4-[[4-chloro-2-(difluoromethoxy)phenyl]carbamoyl]-4-(5-isopropylpyrazol-1-yl)-1-piperidyl]methyl]-1-(2-methylpropanoyl)piperidine-4-carboxylic acid], the IC50 is 32.7 nM.

For `CC(C)c1ccnn1C1(C(=O)Nc2ccc(Cl)cc2OC(F)F)CCN(CC2(C(=O)O)CC2)CC1` [Compound 76, 1-[[4-[[4-chloro-2-(difluoromethoxy)phenyl]carbamoyl]-4-(5-isopropylpyrazol-1-yl)-1-piperidyl]methyl]cyclopropanecarboxylic acid], the IC50 came to 65.5 nM.

For `CC(C)c1ccnn1C1(C(=O)Nc2ccc(Cl)cc2OC(F)F)CCN(CC2(C(=O)O)CCN(C(=O)C34CC(C)(C3)C4)CC2)CC1` [Compound 79, 4-[[4-[[4-chloro-2-(difluoromethoxy)phenyl]carbamoyl]-4-(5-isopropylpyrazol-1-yl)-1-piperidyl]methyl]-1-(3-metbylbicyclo[1.1.1]pentane-1-carbonyl)piperidine-4-carboxylic acid], the IC50 amounted to 15.7 nM.

Consider `CC(C)c1ccnn1C1(C(=O)Nc2ccc(Cl)cc2OC(F)F)CCN(CC2(C(=O)O)CCN(C(=O)C34CC(C#N)(C3)C4)CC2)CC1` [Compound 80, 4-[[4-[[4-chloro-2-(difluoromethoxy)phenyl]carbamoyl]-4-(5-isopropylpyrazol-1-yl)-1-piperidyl]methyl]-1-(3-cyanobicyclo[1.1.1]pentane-1-carbonyl)piperidine-4-carboxylic acid], for which the IC50 was found to be 129 nM.

As for `COc1cnn(C2(C(=O)Nc3ccc(Cl)cc3OC(F)F)CCN(CC3(C(=O)O)CCOCC3)CC2)c1C(C)C` [Compound 81, 4-[[4-[[4-chloro-2-(difluoromethoxy)phenyl]carbamoyl]-4-(5-isopropyl-4-methoxy-pyrazol-1-yl)-1-piperidyl]methyl]tetrahydropyran-4-carboxylic acid], the IC50 is 43 nM.

As for `CC(C)CC(=O)N1CCC(CN2CCC(C(=O)Nc3ccc(Cl)cc3OC(F)F)(n3nccc3C(C)C)CC2)(C(=O)O)CC1` [Compound 82, 4-[[4-[[4-chloro-2-(difluoromethoxy)phenyl]carbamoyl]-4-(5-isopropylpyrazol-1-yl)-1-piperidyl]methyl]-1-(3-methylbutanoyl)piperidine-4-carboxylic acid], the IC50 was determined as 21.9 nM.

In the case of `CC(C)c1ccnn1C1(C(=O)Nc2ccc(Cl)cc2OC(F)F)CCN(CC(C)(C)C(=O)O)CC1` [Compound 83, 3-[4-[[4-chloro-2-(difluoromethoxy)phenyl]carbamoyl]-4-(5-isopropylpyrazol-1-yl)-1-piperidyl]-2,2-dimethyl-propanoic acid], the IC50 was found to be 24.4 nM.

As for `CCOCC1(C(=O)N2CCC(CN3CCC(C(=O)Nc4ccc(Cl)cc4OC(F)F)(n4nccc4C(C)C)CC3)(C(=O)O)CC2)CC1` [Compound 85, 4-[[4-[[4-chloro-2-(difluoromethoxy)phenyl]carbamoyl]-4-(5-isopropylpyrazol-1-yl)-1-piperidyl]methyl]-1-[1-(ethoxymethyl)cyclopropanecarbonyl] piperidine-4-carboxylic acid], the IC50 was 53.7 nM.

On to `CC(C)c1ccnn1C1(C(=O)Nc2ccc(Cl)cc2OC(F)F)CCN(C[C@@H](C)C(=O)O)CC1` [Compound 86, (2R)-3-[4-[[4-chloro-2-(difluoromethoxy)phenyl]carbamoyl]-4-(5-isopropylpyrazol-1-yl)-1-piperidyl]-2-methyl-propanoic acid], for which the half-inhibitory concentration (IC50) was 20.2 nM.

With `CC(C)c1ccnn1C1(C(=O)Nc2ccc(Cl)cc2OC(F)F)CCN(C[C@H](C)C(=O)O)CC1` [Compound 87, (2S)-3-[4-[[4-chloro-2-(difluoromethoxy)phenyl]carbamoyl]-4-(5-isopropylpyrazol-1-yl)-1-piperidyl]-2-methyl-propanoic acid], the IC50 is 32.3 nM.

In the case of `CC(C)OC(=O)N1CCC(CN2CCC(C(=O)Nc3ccc(Cl)cc3OC(F)F)(n3nccc3C(C)C)CC2)(C(=O)O)CC1` [Compound 88], the IC50 came out at 13.3 nM.

For the molecule `CC(C)COC(=O)N1CCC(CN2CCC(C(=O)Nc3ccc(Cl)cc3OC(F)F)(n3nccc3C(C)C)CC2)(C(=O)O)CC1` [Compound 89, 4-[[4-[[4-chloro-2-(difluoromethoxy)phenyl]carbamoyl]-4-(5-isopropylpyrazol-1-yl)-1-piperidyl]methyl]-1-isobutoxycarbonyl-piperidine-4-carboxylic acid], the IC50 turned out to be 5.93 nM.

For `CC(C)c1ccnn1C1(C(=O)Nc2ccc(Cl)cc2OC(F)F)CCN(CC2(C(=O)O)CCN(C(=O)OCC(C)(C)C)CC2)CC1` [Compound 90, 4-[[4-[[4-chloro-2-(difluoromethoxy)phenyl]carbamoyl]-4-(5-isopropylpyrazol-1-yl)-1-piperidyl]methyl]-1-(2,2-dimethylpropoxycarbonyl) piperidine-4-carboxylic acid], the IC50 is 5.54 nM.

`CC1CCc2cnn(C3(C(=O)Nc4ccc(Cl)cc4OC(F)F)CCN(CC4(C(=O)O)CCOCC4)CC3)c21` (stereo not shown) [Compound 91, 4-[[4-[[4-chloro-2-(difluoromethoxy)phenyl]carbamoyl]-4-(6-methyl-5,6-dihydro-4H-cyclopenta[e]pyrazol-1-yl)-1-piperidyl]methy] tetrahydropyran-4-carboxylic acid]: the half-inhibitory concentration (IC50) was 23 nM.

Regarding `CC(C)c1ccnn1C1(C(=O)Nc2ccc(Cl)cc2OC(F)F)CCN(CC2(C(=O)O)CCN(C(=O)C[C@H]3CCOC3)CC2)CC1` [Compound 92, 4-[[4-[[4-chloro-2-(difluoromethoxy)phenyl]carbamoyl]-4-(5-isopropylpyrazol-1-yl)-1-piperidyl]methyl]-1-[2-[(3R)-tetrahydrofuran-3-yl]acetyl]piperidine-4-carboxylic acid], the IC50 turned out to be 119 nM.

For the molecule `CC(C)c1ccnn1C1(C(=O)Nc2ccc(Cl)cc2OC(F)F)CCN(CC2(C(=O)O)CCN(C(=O)C[C@@H]3CCOC3)CC2)CC1` [Compound 93, 4-[[4-[[4-chloro-2-(difluoromethoxy)phenyl]carbamoyl]-4-(5-isopropylpyrazol-1-yl)-1-piperidyl]methyl]-1-[2-[(3S)-tetrahydrofuran-3-yl]acetyl]piperidine-4-carboxylic acid], the IC50 was 539 nM.

Regarding `CC(C)c1ccnn1C1(C(=O)Nc2ccc(Cl)cc2OC(F)F)CCN([C@H]2C[C@@H](CC(=O)O)C2)CC1` [Compound 94, (1s,3s)-2-[3-[4-[[4-chloro-2-(difluoromethoxy)phenyl]carbamoyl]-4-(5-isopropylpyrazol-1-yl)-1-piperidyl]cyclobutyl] acetic acid], the concentration for half-maximal inhibition (IC50) was 40.8 nM.

As for `CC(C)c1ccnn1C1(C(=O)Nc2ccc(Cl)cc2OC(F)F)CCN(C(=N)[C@@H]2C[C@@H]2C(=O)O)CC1` [Compound 96, (1S,2R)-2-[4-[[4-chloro-2-(difluoromethoxy)phenyl]carbamoyl]-4-(5-isopropylpyrazol-1-yl)piperidine-1-carboximidoyl] cyclopropanecarboxylic acid], the IC50 was 23.4 nM.

In the case of `CCOC(=O)N1CC(CN2CCC(C(=O)Nc3ccc(Cl)cc3OC(F)F)(n3nccc3C(C)C)CC2)(C(=O)O)C1` [Compound 97, 3-[[4-[[4-chloro-2-(difluoromethoxy)phenyl]carbamoyl]-4-(5-isopropylpyrazol-1-yl)-1-piperidyl]methyl]-1-ethoxycarbonyl-azetidine-3-carboxylic acid], the IC50 worked out at 122 nM.
